Results from paper PMC12227055 (Science Advances, 2025).

Columns and labels:
[1] = target: T1, CryoR1 (Cryobacterium levicorallinum, UniProt A0A1I3DJQ0); experiment: cryo-EM structure (light-accumulated M2 state), […] A; type: binding; details: covalent deprotonated Schiff base (K241); photoproduct formed in situ from all-trans-retinal; pH 10.5; 530/532 nm illumination
T1 construct: gene E3O11_09160
T1 sequence (A0A1I3DJQ0 3-327): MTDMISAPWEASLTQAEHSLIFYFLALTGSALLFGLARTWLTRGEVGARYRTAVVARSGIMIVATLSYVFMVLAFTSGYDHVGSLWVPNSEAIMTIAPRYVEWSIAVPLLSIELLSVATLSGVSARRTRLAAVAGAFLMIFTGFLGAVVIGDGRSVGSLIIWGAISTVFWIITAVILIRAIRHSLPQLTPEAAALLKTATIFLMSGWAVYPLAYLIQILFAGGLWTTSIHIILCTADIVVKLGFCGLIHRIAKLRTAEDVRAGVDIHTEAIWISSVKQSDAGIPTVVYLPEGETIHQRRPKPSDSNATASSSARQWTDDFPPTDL

[2] = target: T2, CryoR1 (Cryobacterium levicorallinum, UniProt A0A1I3DJQ0, R59T); experiment: UV-Vis absorption and flash photolysis of purified holoprotein; type: binding; details: covalent Schiff base (K241); detergent; pH 8.0 and 10.5
T2 construct: gene E3O11_09160

[3] = target: T3, CryoR3 (Cryobacterium frigoriphilum, UniProt A0A4R8ZY77); experiment: as above; type: binding; details: covalent Schiff base; detergent; pH 8.0
T3 construct: gene E3T55_12175
T3 sequence (A0A4R8ZY77 42-365): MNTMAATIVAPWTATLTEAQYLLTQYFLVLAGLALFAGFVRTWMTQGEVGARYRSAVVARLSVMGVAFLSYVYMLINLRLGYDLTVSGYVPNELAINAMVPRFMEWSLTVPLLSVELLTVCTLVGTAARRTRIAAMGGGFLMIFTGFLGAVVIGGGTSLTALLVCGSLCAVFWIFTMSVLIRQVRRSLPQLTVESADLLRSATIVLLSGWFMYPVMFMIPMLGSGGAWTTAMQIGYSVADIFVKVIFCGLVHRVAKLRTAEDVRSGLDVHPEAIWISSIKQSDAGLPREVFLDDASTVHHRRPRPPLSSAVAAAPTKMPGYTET

[4] = target: T4, CryoR4 (Subtercola vilae, UniProt A0A4T2CD69); experiment: as above; type: binding; details: covalent Schiff base; detergent; pH 8.0
T4 construct: gene D4765_01930
T4 sequence (A0A4T2CD69 1-317): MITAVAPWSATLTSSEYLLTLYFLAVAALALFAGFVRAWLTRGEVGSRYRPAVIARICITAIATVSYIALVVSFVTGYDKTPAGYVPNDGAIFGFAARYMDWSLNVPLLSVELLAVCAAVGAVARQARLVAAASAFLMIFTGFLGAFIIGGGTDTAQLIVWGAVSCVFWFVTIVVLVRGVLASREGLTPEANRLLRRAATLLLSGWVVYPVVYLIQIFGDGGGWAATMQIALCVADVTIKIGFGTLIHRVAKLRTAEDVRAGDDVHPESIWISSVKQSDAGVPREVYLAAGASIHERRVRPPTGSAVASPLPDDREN

[5] = target: T5, CryoR1_1–263 (Cryobacterium levicorallinum, UniProt A0A1I3DJQ0); experiment: as above; type: binding; details: covalent Schiff base; detergent; pH 8.0
T5 construct: gene E3O11_09160
T5 sequence (A0A1I3DJQ0 3-265): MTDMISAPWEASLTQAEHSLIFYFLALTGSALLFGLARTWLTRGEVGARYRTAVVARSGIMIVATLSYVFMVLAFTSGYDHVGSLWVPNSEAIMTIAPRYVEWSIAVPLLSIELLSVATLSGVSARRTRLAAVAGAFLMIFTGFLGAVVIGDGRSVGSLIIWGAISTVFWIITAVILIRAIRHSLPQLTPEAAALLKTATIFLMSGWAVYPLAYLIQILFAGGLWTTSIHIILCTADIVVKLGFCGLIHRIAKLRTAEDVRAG

[6] = target: T1, CryoR1; experiment: cryo-EM structure (ground state); type: binding; details: covalent Schiff base (K241); pH 4.3, 8.0 and 10.5; detergent micelles or nanodisc
[7] = target: T6, CryoR5 (Subtercola boreus, UniProt A0A3E0VLV3); experiment: UV-Vis absorption and flash photolysis of purified holoprotein; type: binding; details: covalent Schiff base; detergent; pH 8.0
T6 construct: gene B7R54_12135
T6 sequence (A0A3E0VLV3 1-318): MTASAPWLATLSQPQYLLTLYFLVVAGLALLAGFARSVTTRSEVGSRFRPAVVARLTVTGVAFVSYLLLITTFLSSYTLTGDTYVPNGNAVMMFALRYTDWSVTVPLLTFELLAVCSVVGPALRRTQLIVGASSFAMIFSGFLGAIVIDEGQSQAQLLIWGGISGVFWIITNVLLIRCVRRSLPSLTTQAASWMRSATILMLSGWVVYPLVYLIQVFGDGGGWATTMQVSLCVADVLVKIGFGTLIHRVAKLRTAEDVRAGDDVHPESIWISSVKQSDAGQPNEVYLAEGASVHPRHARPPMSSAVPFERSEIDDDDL

[8] = target: CryoRhodopsin 1 (CryoR1) from Cryobacterium levicorallinum, wild type (Cryobacterium levicorallinum); experiment: SEC
[9] = target: CryoRhodopsin 1 (CryoR1) from Cryobacterium levicorallinum, wild type (Cryobacterium levicorallinum); experiment: cryo-EM structure
[10] = target: CryoRhodopsin 1 (CryoR1) from Cryobacterium levicorallinum, wild type (Cryobacterium levicorallinum); experiment: cryo-EM structure; remark: listed apart in the source
[11] = target: CryoRhodopsin 2 (CryoR2) from Subtercola sp. AK-R2A1-2 (Subtercola sp. AK-R2A1-2); experiment: crystal structure
[12] = target: CryoRhodopsin 2 (CryoR2) from Subtercola sp. AK-R2A1-2 (Subtercola sp. AK-R2A1-2); experiment: cryo-EM structure

T2 sequence (A0A1I3DJQ0 entry or part of it R59T): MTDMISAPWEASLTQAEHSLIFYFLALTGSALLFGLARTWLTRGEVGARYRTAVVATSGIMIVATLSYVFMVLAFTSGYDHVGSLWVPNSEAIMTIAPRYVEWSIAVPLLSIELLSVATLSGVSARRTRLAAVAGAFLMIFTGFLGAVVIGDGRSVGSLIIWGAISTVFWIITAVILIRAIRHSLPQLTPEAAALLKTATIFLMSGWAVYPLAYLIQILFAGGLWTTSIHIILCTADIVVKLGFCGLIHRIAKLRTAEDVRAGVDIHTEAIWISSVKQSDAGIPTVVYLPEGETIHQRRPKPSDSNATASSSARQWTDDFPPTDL

Which “cryo-EM structure (light-accumulated M2 state), 2.3 A” value [1] does the source give for `CC1=C(/C=C/C(C)=C/C=C/C(C)=C\C=O)C(C)(C)CCC1` [13-cis retinal] here?
The value was “strongly suggests the 13-cis conformation of the cofactor in the M2 state”.

For `CC1=C(/C=C/C(C)=C/C=C/C(C)=C/C=O)C(C)(C)CCC1` [all-trans-retinal], which “UV-Vis absorption and flash photolysis of purified holoprotein” value (shortened to “UV-Vis absorption and flash photolysis”) [2] is on record?
The value was “we studied the spectroscopic properties of the R57T mutant of CryoR1”.

What about the “UV-Vis absorption and flash photolysis” value [3] of the same molecule?
Its value is “CryoR1-5 differ in their UV–visible (Vis) absorption spectra”.

And the “UV-Vis absorption and flash photolysis” value [4]?
The value was “CryoR1-5 differ in their UV–visible (Vis) absorption spectra”.

And the “UV-Vis absorption and flash photolysis” value [5]?
Its value is “spectral properties of the truncated variant of CryoR1”.

What about the “cryo-EM structure (ground state)” value [6] of the same molecule?
The value was “presence of a single state, which we assigned to the ground state”.

What about the “UV-Vis absorption and flash photolysis” value [7] of the same molecule?
Its value is “CryoR1-5 differ in their UV–visible (Vis) absorption spectra”.

Which results are given for “CryoRhodopsin 1 (CryoR1) from Cryobacterium levicorallinum, wild type (natural protein)”?
stoichiometry N [8]: 5; stoichiometry N [9]: 5; stoichiometry N [10]: 5

“CryoRhodopsin 2 (CryoR2) from Subtercola sp. AK-R2A1-2 (natural protein)” was tested. Which stoichiometry N [11] did it give?
Its stoichiometry N is 5.

And the stoichiometry N [12]?
Its stoichiometry N is 5.
